From PMC6380468, “Investigations on small molecule inhibitors targeting the histone H3K4 tri-methyllysine binding PHD-finger of JmjC histone demethylases” (Bioorganic & Medicinal Chemistry, 2018)
Where two headings read alike, the source gives them in different places.

How the values were obtained:
[1] = target: T1, KDM7A(PHD) (Homo sapiens, UniProt Q6ZMT4); assay: AlphaScreen displacement of H3K4me3-Bn from His-KDM7A(PHD); assay type: binding
T1 construct: made in house
T1 sequence (Q6ZMT4 37-88 limits assumed): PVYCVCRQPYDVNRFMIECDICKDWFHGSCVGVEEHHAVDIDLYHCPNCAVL
Method: (§1) For peptide displacement assays, 5 µL of the inhibitor dilution series (at a concentration of 4% DMSO in AlphaScreen assay buffer) was pre-incubated with 5 µL of the protein at RT for 15 minutes. Peptide solution (5 µL) was added and incubated for 30 minutes at RT, followed by the addition of 5 µL of a mixture of AlphaScreen Streptavidin donor beads and Nickel Chelate acceptor beads in AlphaScreen assay buffer (20 µg/mL final). The contents were incubated for 60-120 minutes at RT in the dark, followed by measurement of luminescence on a BMG Labtech Pherastar plate reader (Software Ver. 5.30 R3, Firmware Ver. 1.21). The data was plotted in Prism Ver 7.01 (GraphPad Software, Inc.) and fitted to a Log(inhibitor) v/s response – variable slope model in order to obtain IC50 values.

[2] = target: T2, KDM7B(PHD) (Homo sapiens, UniProt Q9UPP1); assay: AlphaScreen displacement of H3K4me3-Bn from His-KDM7B(PHD); assay type: binding
T2 construct: made in house
T2 sequence (Q9UPP1 41-92 limits assumed): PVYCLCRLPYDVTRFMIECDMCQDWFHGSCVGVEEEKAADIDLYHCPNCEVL
Method: as §1

[3] = target: T3, KDM7C(PHD) (Homo sapiens, UniProt O75151); assay: AlphaScreen displacement of H3K4me3-Bn from His-KDM7C(PHD); assay type: binding
T3 construct: made in house
T3 sequence (O75151 5-56 limits assumed): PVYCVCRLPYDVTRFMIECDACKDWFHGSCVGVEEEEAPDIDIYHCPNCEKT
Method: as §1

[4] = target: KDM7A (PHD-JmjC) (Homo sapiens, UniProt Q6ZMT4); assay: AlphaScreen displacement of H3K4me3-Bn from His-KDM7A(PHD-JmjC); assay type: binding
Chain of KDM7A (PHD-JmjC) (Homo sapiens, UniProt Q6ZMT4) (Q6ZMT4 37-386 limits assumed): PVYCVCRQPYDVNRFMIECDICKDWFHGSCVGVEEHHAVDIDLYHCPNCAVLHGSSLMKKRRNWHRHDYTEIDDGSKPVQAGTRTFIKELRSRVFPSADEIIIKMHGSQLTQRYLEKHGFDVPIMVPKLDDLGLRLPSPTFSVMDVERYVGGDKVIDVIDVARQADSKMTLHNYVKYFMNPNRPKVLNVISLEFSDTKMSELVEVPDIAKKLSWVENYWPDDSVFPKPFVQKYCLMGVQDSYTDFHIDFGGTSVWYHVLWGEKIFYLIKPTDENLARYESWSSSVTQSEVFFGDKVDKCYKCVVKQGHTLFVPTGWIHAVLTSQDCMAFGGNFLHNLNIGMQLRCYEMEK
Method: (§2) A dual-domain construct of KDM7A/B(PHD-JmjC), consisting of a JmjC domain in addition to the PHD-finger (Fig. 1B), was used to test for allosteric inhibition through binding at the PHD-finger.
as §1

[5] = target: T4, KDM7B (PHD-JmjC) (Homo sapiens, UniProt Q9UPP1); assay: MALDI-TOF MS H3K9me2 demethylation assay, KDM7B(PHD-JmjC); assay type: biochemical; settings: read-out: KDM7B (PHD-JmjC) (Catalytic), inhibition of H3K9me2 demethylation
T4 construct: A dual-domain construct of KDM7A/B(PHD-JmjC), consisting of a JmjC domain in addition to the PHD-finger; His; made in house
T4 sequence (Q9UPP1 37-483 limits assumed): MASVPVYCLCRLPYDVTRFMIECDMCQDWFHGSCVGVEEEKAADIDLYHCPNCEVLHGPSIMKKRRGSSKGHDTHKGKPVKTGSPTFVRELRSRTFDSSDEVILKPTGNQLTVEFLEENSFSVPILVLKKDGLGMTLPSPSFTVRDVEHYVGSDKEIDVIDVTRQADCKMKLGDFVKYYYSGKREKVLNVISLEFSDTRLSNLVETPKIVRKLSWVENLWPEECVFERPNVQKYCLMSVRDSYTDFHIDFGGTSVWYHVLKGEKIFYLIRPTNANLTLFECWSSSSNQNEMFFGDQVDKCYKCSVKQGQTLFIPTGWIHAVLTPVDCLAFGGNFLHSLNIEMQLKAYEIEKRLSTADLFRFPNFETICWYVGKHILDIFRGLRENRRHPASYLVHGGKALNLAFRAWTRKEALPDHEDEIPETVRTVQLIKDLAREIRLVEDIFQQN
Method: H3(1–15)K9me2 and H3(1–5)K4me3K9me2 were used as substrates for KDM7A(PHD-JmjC) and KDM7B(PHD-JmjC), respectively. […] For KDM7B(PHD-JmjC), inhibition was most pronounced for 1a (95%) and 2a (89%) whilst others inhibited more weakly (Table 4).
For KDM7(PHD-JmjC) assays, 2.5 µM enzyme was used, with 5 µM H3(1-15)K9me2 peptide substrate for KDM7A or H3(1-15)K4me3K9me2 for KDM7B. Final concentrations were: 1mM ascorbate, 50 µM (NH4)2Fe(II)(SO4)2 and 200 µM 2OG. The mixture was quenched using formic acid after 10 minutes (KDM7A) or 5 minutes (KDM7B).

[6] = target: T5, His-KDM5A(PHD3) (Homo sapiens, UniProt P29375); assay: AlphaScreen displacement assay, H3K4me3-Bn from His-KDM5A(PHD3); assay type: binding
T5 construct: KDM5A(PHD3) (1542 – 1660), encoded by a pGTLV2 vector; made in house; host or cells: E. coli Rosetta 2(DE3)pLysS
T5 sequence (P29375 1542-1660): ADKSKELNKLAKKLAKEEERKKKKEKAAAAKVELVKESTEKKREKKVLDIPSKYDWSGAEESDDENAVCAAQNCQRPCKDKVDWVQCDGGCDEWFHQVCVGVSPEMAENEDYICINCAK
Method: AlphaScreen is a homogenous bead-based assay used to study protein-protein interactions.[28] […] AlphaScreen beads were then added and incubated for 1 h. Changes in the AlphaScreen signals with increasing inhibitor concentrations were then measured to quantify the level of KDM5A(PHD3) and H3K4me3 binding, and IC50 values were determined.
His-tagged PHD finger constructs and H3K4me3-Bn peptides were diluted into AlphaScreen assay buffer (50mM HEPES, 150mM NaCl, 0.1% BSA, 0.01% Tween20, pH 7.5). An 8-point 1:2 dilution series was made for both protein and peptide. With a multichannel pipette (LTS P10), 5 µL protein was dispensed into 8 columns of a 384-well plate, followed by 5 µL of 4% DMSO in AlphaScreen assay buffer. The mixture was incubated at room temperature for 15 minutes, followed by dispensing 5 µL peptide across 8 rows of the 384-well plate, forming a cross-gradient of protein and peptide. The contents were incubated for 30 minutes at room temperature, followed by the addition of 5 µL of a mixture of AlphaScreen Streptavidin donor beads and Nickel Chelate acceptor beads in AlphaScreen assay buffer (20 µg/mL final). The samples were incubated for 60-120 minutes at room temperature in the dark, followed by measurement of luminescence on a BMG Labtech Pherastar plate reader (Software Ver. 5.30 R3, Firmware Ver. 1.21). The data was plotted in Prism Ver 7.01 (GraphPad Software, Inc.) and fitted to a linear model in order to determine the optimal concentration of protein and peptide within the linear signal range for each reader domain.
as §1

[7] = AlphaScreen biotin-His6 counterscreen; settings: AlphaScreen interference counterscreen with biotin-His6, DNC = data did not converge to binding model, NM = not measurable within the solubility range; for IC50: unit inferred; for Biotin-His6 counterscreen: unit not given
[8] = target: T4, KDM7B (PHD-JmjC); assay: AlphaScreen displacement of H3K4me3-Bn from His-KDM7B(PHD-JmjC); assay type: binding
Method: as §2, §1

[9] = test system: KDM7A (PHD-JmjC); assay: MALDI-TOF MS H3K9me2 demethylation assay, KDM7A(PHD-JmjC); assay type: biochemical, human; settings: at 100 µM, substrate H3(1–15)K9me2
Method: Final concentrations were: 1mM ascorbate, 50 µM (NH4)2Fe(II)(SO4)2 and 200 µM 2OG. The mixture was quenched using formic acid after 10 minutes (KDM7A) or 5 minutes (KDM7B).

[10] = AlphaScreen, 6.25 nM KDM7A(PHD) and 25 nM peptide, n ≥ 3, read-out: IC50 for displacement of H3K4me3-Bn from His-KDM7A(PHD)
[11] = AlphaScreen, 12.5 nM protein and 12.5 nM peptide, n ≥ 3, read-out: IC50 for displacement of H3K4me3-Bn from His-KDM7B(PHD)
[12] = AlphaScreen, 25 nM KDM7C(PHD) and 6.25 nM peptide, n ≥ 3, read-out: IC50 for displacement of H3K4me3-Bn from His-KDM7C(PHD)
[13] = AlphaScreen displacement of H3K4me3-Bn, n = 3, NI = No inhibition seen at 100 μM, read-out: IC50 KDM7A (PHD-JmjC) (Displacement)
[14] = at 100 µM, MALDI-TOF MS, substrate H3(1–5)K4me3K9me2
[15] = AlphaScreen, 25 nM protein and 25 nM peptide, average ± StdDev, n ≥ 3, NM = not measurable within the solubility range, read-out: IC50 for displacement of H3K4me3-Bn from His-KDM5A(PHD3)

SMILES	IC50 [1, 10]	IC50 [2, 11]	IC50 [3, 12]	IC50 [4, 13]	inhibition at 100 µM [5, 14]	IC50 [6, 15]	IC50 [7]	IC50 ([8]; AlphaScreen displacement of H3K4me3-Bn, n = 3, NI = No inhibition seen at 100 μM, read-out: IC50 KDM7B (PHD-JmjC) (Displacement))	KDM7A (PHD-JmjC) (Catalytic), inhibition of H3K9me2 demethylation [9]	IC50 [6]	IC50 [1]	IC50 [2]	IC50 [3]	IC50 [4]	IC50 [8]	inhibition at 100 µM [5]	Biotin-His6 counterscreen [7]
CCCCc1oc2ccccc2c1C(=O)c1cc(I)c(OCCN(CC)CC)c(I)c1 [AMI, amiodarone, reference compound]	156 ± 12 µM	252 ± 53 µM	84 ± 14 µM	80 ± 26 µM	22%	–	–	–	–	–	–	–	–	–	–	–	–
Cc1oc2ccccc2c1C(=O)c1ccc(OCCC[N+](C)(C)C)cc1.[I-] [Compound 2b, N,N,N-trimethyl-3-(4-(2-methylbenzofuran-3-carbonyl)phenoxy)propan-1-aminium iodide]	108 ± 15 µM	310 ± 78 µM	598 ± 119 µM	5.6 ± 1.5 µM	32%	844 ± 23 µM	6290 ± 1860 µM	126 ± 34 µM	100% (100 µM)	–	–	–	–	–	–	–	–
Cc1sc2ccccc2c1C(=O)c1ccc(OCCC[N+](C)(C)C)cc1 [Compound 2c, N,N,N-Trimethyl-3-(4-(2-methylbenzo[b]thiophene-3-carbonyl)phenoxy)propan-1-aminium iodide]	104 ± 8 µM	377 ± 76 µM	501 ± 75 µM	–	–	533 ± 109 µM	805 ± 55 µM	–	–	–	–	–	–	–	–	–	–
Cn1cc(C(=O)c2ccc(OCCC[N+](C)(C)C)cc2)c2ccccc21.[I-] [Compound 2d, N,N,N-trimethyl-3-(4-(1-methyl-1H-indole-3-carbonyl)phenoxy)propan-1-aminium iodide]	–	–	–	–	–	–	970 ± 60 µM	–	100% (100 µM)	1310 ± 39 µM	98 ± 10 µM	697 ± 154 µM	682 ± 97 µM	88 ± 17 µM	> 300 µM	24%	–
CCCCc1oc2ccccc2c1C(=O)c1ccccc1OCCC[N+](C)(C)C.[I-] [Compound 7a]	102 ± 15 µM	496 ± 181 µM	1290 ± 280 µM	–	–	1150 ± 100 µM	–	–	–	–	–	–	–	–	–	–	DNC ^a
Cc1oc2ccccc2c1C(=O)c1ccccc1OCCC[N+](C)(C)C.[I-] [Compound 7b]	326 ± 14 µM	286 ± 84 µM	533 ± 99 µM	–	–	2300 ± 82 µM	–	–	–	–	–	–	–	–	–	–	DNC ^a
